Numbers after ± are expanded uncertainties.
Assay: wn = mass fraction of the nth substance listed
Settings: 273.15 K, 102.5 kPa, Liquid; for viscosity: Capillary tube (Ostwald / Ubbelohde) method; for mass density: Pycnometric method

[Cl-].[Cl-].[Zn+2] [zinc chloride] + O
viscosity (w1 = 0.666): 135.4 ± 4.5 mPa·s | mass density (w1 = 0.666): 1943 ± 3 kg/m3

O=[PH2][O-].O=[PH2][O-].[Zn+2] [zinc(II) phosphinate] + O
viscosity (w1 = 0.1379): 2.95 ± 0.06 mPa·s | mass density (w1 = 0.1379): 1069 ± 1 kg/m3

[Cl-].[Na+] [sodium chloride] + O
viscosity (w1 = 0.2625): 2.16 ± 0.05 mPa·s | mass density (w1 = 0.2625): 1201 ± 1 kg/m3

O=[PH2][O-].[Na+] [sodium phosphinate] + O
viscosity (w1 = 0.478): 73.88 ± 1.9 mPa·s | mass density (w1 = 0.478): 1384 ± 1 kg/m3

— the NIST ThermoML archive (doi:10.1016/j.jct.2014.04.014)
